Measured values taken from patent US8937063B2 (Trustees of Tufts College, priority 2010, dated 2015).

What was measured:
[1] = test system: ABCA1 mRNA; experiment: qPCR of liver mRNA in HF/HS hamsters; format: in vivo, hamster; conditions: ARI-001 2240 mg/kg oral 18 days; relative to mean of vehicle
Description: (§1) Hamster livers and adipose were preared in manners similar to that described for ARI-001 concentration determination. Briefly, to prepare for analysis, a sample of liver was excised from the frozen mass, weighed, and homogenized with a tissue grinder followed by sonication in buffer. The solid materials were then removed by centrifugation. The resulting lysate was used in qPCR analysis to quantify the specific mRNA measured (vide infra) using primers designed for the specific sequences of interest. All mRNA quantities were normalized to vehicle-treated animal, and mRNA levels were expressed as a fold increase or decrease relative to vehicle-treated. […] During grinding, liquid nitrogen was added to ensure the sample of adipose remained solid. The ground sample was transferred to a tared tube to weigh total sample. This ground sample was treated with buffer and prepared for qPCR to quantify specific mRNA quantities.

[2] = test system: ApoAI mRNA; experiment: qPCR of liver mRNA in HF/HS hamsters; format: in vivo, hamster; conditions: ARI-001 2240 mg/kg oral 18 days; relative to mean of vehicle
Description: as §1

[3] = test system: SR-BI mRNA; experiment: qPCR of liver mRNA in HF/HS hamsters; format: in vivo, hamster; conditions: ARI-001 2240 mg/kg oral 18 days; relative to mean of vehicle
Description: as §1

[4] = test system: CETP mRNA; experiment: qPCR of liver and adipose mRNA in HF/HS hamsters; format: in vivo, hamster; conditions: ARI-001 2240 mg/kg oral 18 days; relative to mean of vehicle
Description: as §1

[5] = test system: high fat-fed hamsters; experiment: Plasma glucose in chronically dosed hamsters; format: in vivo, hamster; conditions: ARI-001 1120 and 2240 mg/kg oral 18 days, vs vehicle
Description: These animals were dosed for 18 consecutive days, while being on a HF/HS diet for a total of nearly 5 weeks. We also examined the glucose levels in the plasma of these animals. For pharmacokinetic studies, we utilized wild type mice for both single and repeated administration study. Finally, pharmacokinetic studies were corroborated by data from single and repeated administration to monkeys.

[6] = Multiple administration (30 days) pharmacokinetic study in wild type mice; format: in vivo, C57BL/6 mice; conditions: 996, 1493, 2240, 3360 mg/kg oral daily 30 days
Description: Wild type C57BL/6 mice were dosed with ARI-001 in solution via oral gavage daily for 30 consecutive days. Over the course of five 24-hour periods, blood was collected, and the resultant plasma was analyzed for concentrations of ARI-001. Four doses were used: 996 mg/kg, 1493 mg/kg, 2240 mg/kg, and 3360 mg/kg. […] However, these values were time-independent, as there was no trend observed between these parameters and days of administration. See FIGS. 15A-15D and FIGS. 16A-16B.

[7] = test system: mice; experiment: Doppler capillary blood flow (flush proxy) in mice; format: in vivo; conditions: Doppler capillary blood flow measurements
[8] = test system: healthy adult volunteers; experiment: Human clinical trial, single escalating oral doses: triglycerides; format: in vivo; conditions: preliminary, FIG. 22
Description: A randomized, double-blind, placebo-controlled study is performed with sequential escalating doses by cohort with observations for 30 hours post dosing and return visit on 8th day. Study subjects are healthy male and female adult volunteers, age 18-60 years, with LDL-C>130 mg/dL and weight <85 kg. Subjects are randomly assigned to receive study drug or placebo.
Five periods of single dose escalation, with 8 subjects per cohort (6 drug: 2 placebo) involve a total 40 subjects. Appropriately blinded matching placebos are provided. Cohort 1 receives 500 mg of ARI-001 formulated as a single oral tablet, plus eleven placebo tablets; Cohort 2, 1000 mg taken as two 500 mg tablets of ARI-001, plus ten placebo tablets; Cohort 3, 2000 mg taken as four 500 mg tablets of ARI-001, plus eight placebo tablets; Cohort 4, 4000 mg taken as eight 500 mg tablets of ARI-001, plus four placebo tablets; Corhort 5, 6000 mg taken as twelve 500 mg tablets of ARI-001. Placebo-only subjects take twelve placebo tablets. Each tablet is a compressed, film-coated tablet suitable for oral administration. […]

In the case of `O=C(O)c1ccc(CCN2CCOCC2)nc1` [ARI-001], the “Liver ABCA1 mRNA per mg tissue” value [1] is reported as 1.54 ± 0.48 fold-change, the “Liver ApoAI mRNA per mg tissue” value [2] is reported as 1.72 ± 0.24 fold-change and the “Liver SR-BI mRNA per mg tissue” value [3] is reported as 1.50 ± 0.33 fold-change. The “Adipose CETP mRNA per mg tissue” value [4] was 1.72 ± 0.70 fold-change, the “Liver CETP mRNA per mg tissue” value [4] was 2.05 ± 0.38 fold-change and the plasma glucose [5] was “neither dose of ARI-001 produced any significant change in glucose levels”. For the same molecule, the “Cmax levels and AUC as a function of days of administration” value [6] was “time-independent”, the “Cmax levels and total 24-hour exposure (AUC) as a function of dose” value [6] was “dose-dependent” and the “capillary vasodilation or hyperemia (a proxy of flush)” value [7] was “no evidence of capillary vasodilation or hyperemia”. The “change in triglycerides 4 hours after dosing” value [8] was “dose response for triglyceride lowering”.
